Data on 61 molecules can be found in patent US9428456B2, “1-[m-carboxamido(hetero)aryl-methyl]-heterocyclyl-carboxamide derivatives” (Actelion Pharmaceuticals Ltd., priority 2012, dated 2016).

The structures appear in SMILES notation.

CXCR7, sequence (P25106 whole entry): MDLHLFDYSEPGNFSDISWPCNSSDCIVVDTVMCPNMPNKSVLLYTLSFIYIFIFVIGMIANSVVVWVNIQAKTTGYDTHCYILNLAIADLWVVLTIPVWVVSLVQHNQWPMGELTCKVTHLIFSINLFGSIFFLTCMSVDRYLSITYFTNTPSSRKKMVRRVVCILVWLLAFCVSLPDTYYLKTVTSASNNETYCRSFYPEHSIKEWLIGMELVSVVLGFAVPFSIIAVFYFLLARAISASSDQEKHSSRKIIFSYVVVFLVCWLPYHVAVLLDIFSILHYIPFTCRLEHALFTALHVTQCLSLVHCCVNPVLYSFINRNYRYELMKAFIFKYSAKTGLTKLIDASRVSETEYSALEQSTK
CXCR7, sequence (P32121 whole entry partner): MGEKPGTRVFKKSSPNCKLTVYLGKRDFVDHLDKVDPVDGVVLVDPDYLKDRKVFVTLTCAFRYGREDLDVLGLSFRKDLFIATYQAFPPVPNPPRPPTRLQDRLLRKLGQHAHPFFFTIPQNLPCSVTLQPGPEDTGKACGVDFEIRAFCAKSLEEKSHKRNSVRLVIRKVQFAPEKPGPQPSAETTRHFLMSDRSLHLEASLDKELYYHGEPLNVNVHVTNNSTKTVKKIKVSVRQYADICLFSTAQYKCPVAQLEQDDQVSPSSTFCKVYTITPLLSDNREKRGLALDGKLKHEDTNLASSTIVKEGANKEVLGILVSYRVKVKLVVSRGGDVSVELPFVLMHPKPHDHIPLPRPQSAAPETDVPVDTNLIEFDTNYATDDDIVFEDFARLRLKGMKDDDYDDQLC

The assay has as its target CXCR7 (Homo sapiens (Human), UniProt P25106). Briefly: PathHunter CHO-K1 CXCR7 b-arrestin assay (agonistic activity). Conditions: PathHunter CHO-K1 CXCR7 b-arrestin cell line. The class given is cell-based. As for the experimental part:
The CXCl12 receptor and CXCR7 agonistic activities of the compounds of formula (I) are determined in accordance with the following experimental method.
The assay is using the PathHunter™ CHO-K1 CXCR7 b-arrestin cell line from DiscoverX. The system is based on the Enzyme Fragment Complementation Technology. Two complementing fragments of the b-galactosidase enzyme are expressed within stably transfected cells. The larger portion of b-gal, termed EA for Enzyme Acceptor, is fused to the C-terminus of b-arrestin 2. The smaller fragment, termed ProLink™ tag, is fused to CXCR7 at the C-terminus. Upon activation, b-arrestin is recruited which forces the interaction of ProLink and EA, allowing complementation of the two fragments of b-gal and the formation of a functional enzyme which is capable of hydrolysing the substrate and generating a chemiluminescent signal.
CHO-K1 CXCR7 b-arrestin cells are detached from culture dishes with a cell dissociation buffer (Invitrogen, #13151-014) and collected in growing medium (F12 HAMS 90% (v/v)/FCS 10% (v/v), Penicilin/streptomycin 1% (v/v)). 5000 cells per well (in 20 μl) are seeded in a 384 well plate (white-walled, clear bottom; BD Falcon #353274). The plate is incubated at 37° C./5% CO2 for 24 hours. Medium is then replaced by 20 μl OPTIMEM (Invitrogen #31985) for 3 to 4 hours. Test compounds are dissolved at 10 mM in DMSO and serially diluted in DMSO to 200× of the final concentration for dose response curves. Compounds are then diluted 1:33.3 in HBSS1×. 5 μl/well of HBSS1×/20 mM HEPES/0.2% BSA are added to the assay plate followed by addition of 5 μl/well of diluted compounds. CXCL12 (Peprotech #300-28A) may be used as a reference agonist. The plate is incubated for 90 minutes at 37° C. 12 μl of detection reagent (Path Hunter Detection Kit, DiscoveRx, #93-0001) is transferred to the assay plate and to the plate is incubated for 1 hour at room temperature. Luminescent signal is read in a microplate reader (FLUOstar Optima, bmg). The calculated EC50 values may fluctuate depending on the daily cellular assay performance. Fluctuations of this kind are known to those skilled in the art. Average EC50 values from several measurements are given as geometric mean values.
The EC50 is the midpoint of the concentration-response curve. As to `O=C(CCc1ccccc1)Nc1cccc(CN2CCC(C(=O)NC3CCCCC3)CC2)c1` [Example 1.034], the midpoint of the response, the EC50, lay at 18 nM. For the molecule `COc1ccccc1CC(=O)Nc1cccc(CN2CCC(C(=O)NC3CCCCC3)CC2)c1` [Example 1.035], the midpoint of the response, the EC50, lay at 4 nM. Regarding `O=C(Cc1ccc(Cl)cc1)Nc1cccc(CN2CCC(C(=O)NC3CCCCC3)CC2)c1` [Example 1.037], the concentration giving a half-maximal response (EC50) stood at 34 nM. The molecule `O=C(Nc1cccc(CN2CCC(C(=O)NC3CCCCC3)CC2)c1)c1ncc[nH]1` [Example 1.038] gave an EC50 of 13 nM. As for `O=C(Nc1cccc(CN2CCC(C(=O)NC3CCCCC3)CC2)c1)c1ccccn1` [Example 1.039], the EC50 was 1 nM. To `O=C(Nc1cccc(CN2CCC(C(=O)NC3CCCCC3)CC2)c1)c1cnc[nH]1` [Example 1.040] belongs 1260 nM; to `CC(C)Cc1ccc(C(=O)Nc2cccc(CN3CCC(C(=O)NC4CCCCC4)CC3)c2)cc1` [Example 1.041], 43 nM. Molecule `COc1ccc(CC(=O)Nc2cccc(CN3CCC(C(=O)NC4CCCCC4)CC3)c2)cc1` [Example 1.042] registered a concentration for a half-maximal effect (EC50) of 79 nM. In the case of `O=C(CC1CCCCC1)Nc1cccc(CN2CCC(C(=O)NC3CCCCC3)CC2)c1` [Example 1.043], the EC50 was found to be 9 nM. Under `O=C(Nc1cccc(CN2CCC(C(=O)NC3CCCCC3)CC2)c1)c1cn[nH]c1` [Example 1.044] stands 1240 nM; under `O=C(CCc1nc2ccccc2[nH]1)Nc1cccc(CN2CCC(C(=O)NC3CCCCC3)CC2)c1` [Example 1.045], 2490 nM; under `O=C(Nc1cccc(CN2CCC(C(=O)NC3CCCCC3)CC2)c1)c1ccc[nH]1` [Example 1.046], 5 nM. `COc1cccc(CC(=O)Nc2cccc(CN3CCC(C(=O)NC4CCCCC4)CC3)c2)c1` [Example 1.047]: the EC50 was 17 nM.

Regarding `O=C(Nc1cccc(CN2CCC(C(=O)NC3CCCCC3)CC2)c1)c1cccc2ccccc12` [Example 1.048], a half-maximal response (EC50) required 46 nM. On to `O=C(Nc1cccc(CN2CCC(C(=O)NC3CCCCC3)CC2)c1)c1ccno1` [Example 1.049], for which the EC50 is 7 nM.

In turn, `O=C(Nc1cccc(CN2CCC(C(=O)NC3CCCCC3)CC2)c1)c1ccccc1Cl` [Example 1.050] gave an EC50 of 12 nM. To `Cn1cnc(C(=O)Nc2cccc(CN3CCC(C(=O)NC4CCCCC4)CC3)c2)c1` [Example 1.051] belongs 130 nM. The molecule `O=C(CC1Cc2ccccc2C1)Nc1cccc(CN2CCC(C(=O)NC3CCCCC3)CC2)c1` [Example 1.052] gave an EC50 of 36 nM. The molecule `O=C(Nc1cccc(CN2CCC(C(=O)NC3CCCCC3)CC2)c1)c1ccncc1` [Example 1.053] yielded a half-maximal effective concentration (EC50) of 40 nM. Molecule `Cc1cc(C(=O)Nc2cccc(CN3CCC(C(=O)NC4CCCCC4)CC3)c2)cc(C2CCCC2)n1` [Example 1.054] gave a 50% effective concentration (EC50) of 41 nM.

Turning to `Cc1cc(C(=O)Nc2cccc(CN3CCC(C(=O)NC4CCCCC4)CC3)c2)ccn1` [Example 1.055], it took 10 nM to reach a half-maximal effect (EC50). Turning to `O=C(Nc1cccc(CN2CCC(C(=O)NC3CCCCC3)CC2)c1)c1cncc(F)c1` [Example 1.056], the EC50 was 7 nM. Under `O=C(Nc1cccc(CN2CCC(C(=O)NC3CCCCC3)CC2)c1)c1ccc(F)cn1` [Example 1.057] stands 0.8 nM; under `O=C(Nc1cccc(CN2CCC(C(=O)NC3CCCCC3)CC2)c1)c1cncc(C(F)(F)F)c1` [Example 1.058], 5 nM; under `O=C(Nc1cccc(CN2CCC(C(=O)NC3CCCCC3)CC2)c1)c1cccnc1C(F)(F)F` [Example 1.059], 393 nM. As to `Cc1cncc(C(=O)Nc2cccc(CN3CCC(C(=O)NC4CCCCC4)CC3)c2)c1` [Example 1.060], a half-maximal effect (EC50) was put at 4 nM. In turn, `Cc1cccnc1C(=O)Nc1cccc(CN2CCC(C(=O)NC3CCCCC3)CC2)c1` [Example 1.061] came in with a 50% effective concentration (EC50) of 1 nM. For the molecule `COc1cc(C(=O)Nc2cccc(CN3CCC(C(=O)NC4CCCCC4)CC3)c2)nc(OC)n1` [Example 1.062], a half-maximal response (EC50) required 57 nM.

As to `Cc1ccncc1C(=O)Nc1cccc(CN2CCC(C(=O)NC3CCCCC3)CC2)c1` [Example 1.063], it took 237 nM to reach a half-maximal effect (EC50). Molecule `Cc1ccc(C(=O)Nc2cccc(CN3CCC(C(=O)NC4CCCCC4)CC3)c2)cn1` [Example 1.064] returned an EC50 of 19 nM.

`Cc1ncccc1C(=O)Nc1cccc(CN2CCC(C(=O)NC3CCCCC3)CC2)c1` [Example 1.065]: the response was half-maximal at 59 nM (EC50). To `O=C(Nc1cccc(CN2CCC(C(=O)NC3CCCCC3)CC2)c1)c1cccnc1Cl` [Example 1.066] belongs 44 nM; to `O=C(Nc1cccc(CN2CCC(C(=O)NC3CCCCC3)CC2)c1)c1ccc(Cl)nc1` [Example 1.067], 2 nM.

As for `O=C(Nc1cccc(CN2CCC(C(=O)NC3CCCCC3)CC2)c1)c1ccc(C(F)(F)F)nc1` [Example 1.068], the response was half-maximal at 7 nM (EC50). As to `COc1ncccc1C(=O)Nc1cccc(CN2CCC(C(=O)NC3CCCCC3)CC2)c1` [Example 1.069], the EC50 was 10 nM. `Cc1ccc(C(=O)Nc2cccc(CN3CCC(C(=O)NC4CCCCC4)CC3)c2)c(Cl)n1` [Example 1.070]: the EC50 worked out at 40 nM. The molecule `CCN(CC)c1ccc(C(=O)Nc2cccc(CN3CCC(C(=O)NC4CCCCC4)CC3)c2)cn1` [Example 1.071] yielded an EC50 of 182 nM.

Regarding `CN1CCN(c2ccc(C(=O)Nc3cccc(CN4CCC(C(=O)NC5CCCCC5)CC4)c3)cn2)CC1` [Example 1.072], a half-maximal effect (EC50) was put at 471 nM.

Molecule `O=C(Nc1cccc(CN2CCC(C(=O)NC3CCCCC3)CC2)c1)c1cccnc1N1CCOCC1` [Example 1.073] returned an EC50 of 371 nM. Take `O=C(Nc1cccc(CN2CCC(C(=O)NC3CCCCC3)CC2)c1)c1ccncc1Cl` [Example 1.074]: the EC50 turned out to be 60 nM.

In turn, `COc1cc(C(=O)Nc2cccc(CN3CCC(C(=O)NC4CCCCC4)CC3)c2)cc(Cl)n1` [Example 1.075] had an EC50 of 9 nM.

In turn, `O=C(Nc1cccc(CN2CCC(C(=O)NC3CCCCC3)CC2)c1)c1cnc2[nH]ccc2c1` [Example 1.076] came in with an EC50 of 26 nM. On to `O=C(Nc1cccc(CN2CCC(C(=O)NC3CCCCC3)CC2)c1)c1cc(Cl)ccn1` [Example 1.077], for which it took 3 nM to reach a half-maximal effect (EC50). `O=C(Nc1cccc(CN2CCC(C(=O)NC3CCCCC3)CC2)c1)c1cccc(Cl)n1` [Example 1.078] showed a half-maximal effective concentration (EC50) of 1 nM. The molecule `O=C(Nc1cccc(CN2CCC(C(=O)NC3CCCCC3)CC2)c1)c1cccc[n+]1[O-]` [Example 1.080] showed a half-maximal effective concentration (EC50) of 14 nM. Take `Cc1cccc(C(=O)Nc2cccc(CN3CCC(C(=O)NC4CCCCC4)CC3)c2)n1` [Example 1.081]: a half-maximal response (EC50) required 0.9 nM. Consider `Cc1ccnc(C(=O)Nc2cccc(CN3CCC(C(=O)NC4CCCCC4)CC3)c2)c1` [Example 1.082], for which the 50% effective concentration (EC50) was 4 nM. `Cc1cc(C)nc(C(=O)Nc2cccc(CN3CCC(C(=O)NC4CCCCC4)CC3)c2)c1` [Example 1.083] yielded an EC50 of 11 nM. The molecule `O=C(Nc1cccc(CN2CCC(C(=O)NC3CCCCC3)CC2)c1)c1ccc(N2CCCC2)cn1` [Example 1.084] displayed a 50% effective concentration (EC50) of 39 nM. On to `O=C(Nc1cccc(CN2CCC(C(=O)NC3CCCCC3)CC2)c1)c1ncccc1Br` [Example 1.085], for which the EC50 is 1 nM. To `Cc1ncncc1C(=O)Nc1cccc(CN2CCC(C(=O)NC3CCCCC3)CC2)c1` [Example 1.086] belongs 527 nM. Molecule `O=C(Nc1cccc(CN2CCC(C(=O)NC3CCCCC3)CC2)c1)c1ncccn1` [Example 1.087] showed a half-maximal effective concentration (EC50) of 36 nM. Molecule `Cc1cc(C(=O)Nc2cccc(CN3CCC(C(=O)NC4CCCCC4)CC3)c2)nc(N(C)C)n1` [Example 1.088] came in with a 50% effective concentration (EC50) of 24 nM. For the molecule `O=C(Nc1cccc(CN2CCC(C(=O)NC3CCCCC3)CC2)c1)c1cc(F)c(Cl)nc1Cl` [Example 1.089], the EC50 is 15 nM. As for `O=C(Nc1cccc(CN2CCC(C(=O)NC3CCCCC3)CC2)c1)c1cnc(Cl)c(Cl)c1` [Example 1.090], a half-maximal response (EC50) required 6 nM. `O=C(Nc1cccc(CN2CCC(C(=O)NC3CCCCC3)CC2)c1)c1ccc(Cl)nc1Cl` [Example 1.091] gave an EC50 of 12 nM.

In turn, `COc1ccc(C(=O)Nc2cccc(CN3CCC(C(=O)NC4CCCCC4)CC3)c2)cn1` [Example 1.092] came in with an EC50 of 3 nM. The molecule `O=C(Nc1cccc(CN2CCC(C(=O)NC3CCCCC3)CC2)c1)c1cnc2cc[nH]c2c1` [Example 1.093] yielded an EC50 of 149 nM. Molecule `O=C(Nc1cccc(CN2CCC(C(=O)NC3CCCCC3)CC2)c1)c1ccc(Cl)cn1` [Example 1.094] yielded an EC50 of 1 nM. In turn, `O=C(Nc1cccc(CN2CCC(C(=O)NC3CCCCC3)CC2)c1)c1ccccc1OC(F)(F)F` [Example 1.095] showed a 50% effective concentration (EC50) of 5 nM. For `CN(C)c1ccc(C(=O)Nc2cccc(CN3CCC(C(=O)NC4CCCCC4)CC3)c2)cc1` [Example 1.096], a half-maximal effect (EC50) was put at 40 nM.
